Results reported in ChEMBL document CHEMBL5380790 (J Med Chem, 2023).
Converted amounts (≈) assume the structure as drawn. The source made the active and inactive calls. No cut-off for these calls is given here.

Tests used:
[1] = target: Mast/stem cell growth factor receptor Kit (Homo sapiens, UniProt P10721, DELTA560/V654A); format: cell-based, GIST-430/654
[2] = target: Receptor-type tyrosine-protein kinase FLT3 (Homo sapiens) (UniProt P36888); test: Inhibition of FLT3 (unknown origin) at 1 uM using 33P-ATP as substrate incubated for 120 mins by radiometric kinase assay
[3] = Metabolic stability in human hepatocytes assessed as intrinsic clearance measured per million cells; format: ADME, cell-based, Hepatocyte; conditions: read-out: CLH
[4] = Apparent passive permeability of compound in human Caco-2 cells at 1 uM and measured after 2 hrs by LC-MS/MS analysis; format: ADME, cell-based
[5] = Efflux ratio of apparent permeability from basolateral to apical side over apical to basolateral side in human Caco-2 cells at 1 uM and measured after 2 hrs by LC-MS/MS analysis; format: ADME, cell-based
[6] = Solubility of compound in FaSSIF at pH 6.5; format: physicochemical
[7] = Octanol-water distribution coefficient, logD of the compound at pH 7.4; format: physicochemical
[8] = Dissociation constant, pKa of the compound; format: physicochemical
[9] = target: T1, Platelet-derived growth factor receptor alpha (Homo sapiens, UniProt P16234); test: Inhibition of PDGFRA (unknown origin) at 1 uM using 33P-ATP as substrate incubated for 120 mins by radiometric kinase assay
[10] = target: T2, Platelet-derived growth factor receptor beta (Homo sapiens, UniProt P09619); test: Inhibition of PDGFRB (unknown origin) at 1 uM using 33P-ATP as substrate incubated for 120 mins by radiometric kinase assay
[11] = target: T3, Mast/stem cell growth factor receptor Kit (Homo sapiens, UniProt P10721); test: Inhibition of wild type KIT (unknown origin) at 1 uM using 33P-ATP as substrate incubated for 120 mins by radiometric kinase assay
Target sequence in this assay (P10721 whole entry): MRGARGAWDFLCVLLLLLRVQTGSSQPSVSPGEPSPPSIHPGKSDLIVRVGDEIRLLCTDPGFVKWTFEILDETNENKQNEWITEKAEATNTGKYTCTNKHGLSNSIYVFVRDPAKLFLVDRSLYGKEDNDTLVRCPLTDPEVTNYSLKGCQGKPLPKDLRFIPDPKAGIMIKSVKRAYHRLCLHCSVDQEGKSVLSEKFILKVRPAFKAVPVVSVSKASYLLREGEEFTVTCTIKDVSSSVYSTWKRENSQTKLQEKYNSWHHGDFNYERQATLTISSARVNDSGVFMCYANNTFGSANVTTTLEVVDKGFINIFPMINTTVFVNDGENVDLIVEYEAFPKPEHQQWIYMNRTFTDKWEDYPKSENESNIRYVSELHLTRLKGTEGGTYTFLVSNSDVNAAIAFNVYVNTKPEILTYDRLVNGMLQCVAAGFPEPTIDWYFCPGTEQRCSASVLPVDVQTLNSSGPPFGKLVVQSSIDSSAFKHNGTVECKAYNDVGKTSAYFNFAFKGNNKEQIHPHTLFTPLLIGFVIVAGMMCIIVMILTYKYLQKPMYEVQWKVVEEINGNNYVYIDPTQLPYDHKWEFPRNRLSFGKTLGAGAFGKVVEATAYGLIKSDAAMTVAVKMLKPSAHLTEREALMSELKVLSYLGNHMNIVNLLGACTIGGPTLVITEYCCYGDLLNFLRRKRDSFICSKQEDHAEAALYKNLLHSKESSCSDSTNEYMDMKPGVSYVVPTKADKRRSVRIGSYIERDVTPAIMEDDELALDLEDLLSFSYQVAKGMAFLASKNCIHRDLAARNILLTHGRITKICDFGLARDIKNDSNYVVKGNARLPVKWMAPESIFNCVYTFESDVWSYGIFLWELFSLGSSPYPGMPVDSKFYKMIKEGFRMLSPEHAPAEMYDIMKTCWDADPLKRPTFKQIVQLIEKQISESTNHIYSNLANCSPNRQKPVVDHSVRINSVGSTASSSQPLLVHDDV

[12] = target: T4, Macrophage colony-stimulating factor 1 receptor (Homo sapiens, UniProt P07333); test: Inhibition of CSF1R (unknown origin) at 1 uM using 33P-ATP as substrate incubated for 120 mins by radiometric kinase assay
[13] = target: T5, Tyrosine-protein kinase Lck (Homo sapiens, UniProt P06239); test: Inhibition of LCK (unknown origin) at 1 uM using 33P-ATP as substrate incubated for 120 mins by radiometric kinase assay
[14] = target: T1, Platelet-derived growth factor receptor alpha; test: Inhibition of PDGFRA (unknown origin) using 33P-ATP as substrate incubated for 120 mins by radiometric kinase assay
[15] = target: T2, Platelet-derived growth factor receptor beta; test: Inhibition of PDGFRB (unknown origin) using 33P-ATP as substrate incubated for 120 mins by radiometric kinase assay
[16] = target: T4, Macrophage colony-stimulating factor 1 receptor; test: Inhibition of CSF1R (unknown origin) using 33P-ATP as substrate incubated for 120 mins by radiometric kinase assay
[17] = target: T5, Tyrosine-protein kinase Lck; test: Inhibition of LCK (unknown origin) using 33P-ATP as substrate incubated for 120 mins by radiometric kinase assay
[18] = target: T3, Mast/stem cell growth factor receptor Kit; test: Binding affinity to wild type human KIT in human HEK293 cells at 1 uM by NanoBRET assay; format: cell-based
Target sequence in this assay (P10721 whole entry): as above

[19] = target: Receptor-type tyrosine-protein kinase FLT3 (Homo sapiens) (UniProt P36888); test: Binding affinity to human FLT3 in human HEK293 cells at 1 uM by NanoBRET assay; format: cell-based
[20] = Genotoxicity in Salmonella typhimurium by Ames test; format: toxicity; conditions: salmonella enterica subsp. enterica serovar typhimurium
[21] = Plasma clearance in CD-1 mouse at 0.2 mg/kg, iv and measured upto 24 hrs; format: ADME, organism-based
[22] = Volume of distribution at steady state in CD-1 mouse at 0.2 mg/kg, iv and measured upto 24 hrs; format: ADME, organism-based; conditions: in vivo, read-out: Vdss
[23] = Oral bioavailability in CD-1 mouse at 10 mg/kg and measured upto 24 hrs; format: ADME, organism-based; conditions: in vivo
[24] = Plasma clearance in Han Wistar rat at 0.2 mg/kg, iv and measured upto 24 hrs; format: ADME, organism-based
[25] = Volume of distribution at steady state in Han Wistar rat at 0.2 mg/kg, iv and measured upto 24 hrs; format: ADME, organism-based; conditions: in vivo, read-out: Vdss
[26] = Half life in Han Wistar rat at 0.2 mg/kg, iv and measured upto 24 hrs; format: ADME, organism-based; conditions: in vivo
[27] = Oral biovailability in Han Wistar rat at 30 mg/kg and measured upto 24 hrs; format: ADME, organism-based; conditions: in vivo
[28] = Plasma clearance in Beagle dog at 0.2 mg/kg, iv and measured upto 24 hrs; format: ADME, organism-based, Canis lupus familiaris
[29] = Half life in Beagle dog at 0.2 mg/kg, iv and measured upto 24 hrs; format: ADME, organism-based, Canis lupus familiaris; conditions: in vivo
[30] = Oral bioavailability in Beagle dog at 20 mg/kg and measured upto 24 hrs; format: ADME, organism-based, Canis lupus familiaris; conditions: in vivo
[31] = Plasma clearance in Cynomolgus monkey at 0.2 mg/kg, iv and measured upto 24 hrs; format: ADME, organism-based, Macaca fascicularis
[32] = Volume of distribution at steady state in Cynomolgus monkey at 0.2 mg/kg, iv and measured upto 24 hrs; format: ADME, organism-based, Macaca fascicularis; conditions: in vivo, read-out: Vdss
[33] = Oral bioavailability in Cynomolgus monkey at 5 mg/kg and measured upto 24 hrs; format: ADME, organism-based, Macaca fascicularis; conditions: in vivo
[34] = system: Mast/stem cell growth factor receptor Kit (Homo sapiens), P10721 [UNDEFINED MUTATION]; test: Inhibition of recombinant human KIT (557 to 558 residues) activating deletion mutant in exon 11 using polyGT and ATP as substrate preincubated for 20 mins followed by substrate addition and measured after 240 mins by FRET assay; conditions: time 260.0 min
[35] = system: Mast/stem cell growth factor receptor Kit (Homo sapiens), P10721 [V559D]; test: Inhibition of recombinant human KIT V559D mutant in exon 11 using polyGT and ATP as substrate preincubated for 20 mins followed by substrate addition and measured after 240 mins by FRET assay; conditions: time 260.0 min
[36] = system: Mast/stem cell growth factor receptor Kit (Homo sapiens), P10721 [V559A]; test: Inhibition of recombinant human KIT V559A mutant in exon 11 using polyGT and ATP as substrate preincubated for 20 mins followed by substrate addition and measured after 240 mins by FRET assay; conditions: time 260.0 min
[37] = system: Mast/stem cell growth factor receptor Kit (Homo sapiens), P10721 [V560G]; test: Inhibition of recombinant human KIT V560G mutant in exon 11 using polyGT and ATP as substrate preincubated for 20 mins followed by substrate addition and measured after 240 mins by FRET assay; conditions: time 260.0 min
[38] = system: Mast/stem cell growth factor receptor Kit (Homo sapiens), P10721 [T670I]; test: Inhibition of recombinant human KIT T670I mutant in exon 14 using polyGT and ATP as substrate preincubated for 20 mins followed by substrate addition and measured after 240 mins by FRET assay; conditions: time 260.0 min
[39] = target: T3, Mast/stem cell growth factor receptor Kit; format: cell-based; conditions: gist430
[40] = target: Mast/stem cell growth factor receptor Kit (Homo sapiens, UniProt P10721, N822K); test: Inhibition of KIT N822K mutant autophosphorylation in human Kasumi 1 cells harboring KIT N822K mutation in exon 17 incubated for 45 mins by Luminex-based bead assay; format: cell-based
[41] = system: GIST430; format: functional, cell-based; conditions: Homo sapiens, dose 10.0 µM
[42] = system: GIST-430/654; format: functional, organism-based; conditions: Homo sapiens, dose 10-35 mg/kg, route po, time 30.0 day

T1 sequence (P16234 whole entry): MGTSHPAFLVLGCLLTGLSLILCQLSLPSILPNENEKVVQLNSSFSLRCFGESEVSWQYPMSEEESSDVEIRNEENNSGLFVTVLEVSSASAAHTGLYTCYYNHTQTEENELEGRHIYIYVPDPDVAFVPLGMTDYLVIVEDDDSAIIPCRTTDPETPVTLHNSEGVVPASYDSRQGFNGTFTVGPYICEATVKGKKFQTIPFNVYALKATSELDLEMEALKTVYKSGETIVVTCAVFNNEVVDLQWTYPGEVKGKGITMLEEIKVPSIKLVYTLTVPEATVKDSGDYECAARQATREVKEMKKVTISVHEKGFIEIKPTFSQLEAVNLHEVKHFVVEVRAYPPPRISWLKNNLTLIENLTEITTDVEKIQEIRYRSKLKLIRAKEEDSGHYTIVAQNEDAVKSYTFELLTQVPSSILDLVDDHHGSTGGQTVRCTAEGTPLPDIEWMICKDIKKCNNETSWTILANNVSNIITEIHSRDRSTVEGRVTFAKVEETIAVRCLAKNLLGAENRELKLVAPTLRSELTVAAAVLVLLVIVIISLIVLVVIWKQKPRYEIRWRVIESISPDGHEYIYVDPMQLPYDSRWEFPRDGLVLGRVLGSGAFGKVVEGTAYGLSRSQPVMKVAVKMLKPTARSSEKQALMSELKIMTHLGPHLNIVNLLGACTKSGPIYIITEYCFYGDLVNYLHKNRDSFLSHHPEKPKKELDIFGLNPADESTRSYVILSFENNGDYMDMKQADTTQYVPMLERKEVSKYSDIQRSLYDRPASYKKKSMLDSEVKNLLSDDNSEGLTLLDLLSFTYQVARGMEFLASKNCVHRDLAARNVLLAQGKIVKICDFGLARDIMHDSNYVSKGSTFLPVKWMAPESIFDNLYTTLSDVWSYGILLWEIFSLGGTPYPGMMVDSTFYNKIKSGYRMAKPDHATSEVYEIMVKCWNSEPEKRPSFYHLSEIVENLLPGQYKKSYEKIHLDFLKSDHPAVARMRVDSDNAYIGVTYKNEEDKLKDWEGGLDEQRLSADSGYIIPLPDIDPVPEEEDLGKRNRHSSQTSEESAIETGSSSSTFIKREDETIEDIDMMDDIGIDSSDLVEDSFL
Chain of Receptor-type tyrosine-protein kinase FLT3 (Homo sapiens) (P36888 whole entry): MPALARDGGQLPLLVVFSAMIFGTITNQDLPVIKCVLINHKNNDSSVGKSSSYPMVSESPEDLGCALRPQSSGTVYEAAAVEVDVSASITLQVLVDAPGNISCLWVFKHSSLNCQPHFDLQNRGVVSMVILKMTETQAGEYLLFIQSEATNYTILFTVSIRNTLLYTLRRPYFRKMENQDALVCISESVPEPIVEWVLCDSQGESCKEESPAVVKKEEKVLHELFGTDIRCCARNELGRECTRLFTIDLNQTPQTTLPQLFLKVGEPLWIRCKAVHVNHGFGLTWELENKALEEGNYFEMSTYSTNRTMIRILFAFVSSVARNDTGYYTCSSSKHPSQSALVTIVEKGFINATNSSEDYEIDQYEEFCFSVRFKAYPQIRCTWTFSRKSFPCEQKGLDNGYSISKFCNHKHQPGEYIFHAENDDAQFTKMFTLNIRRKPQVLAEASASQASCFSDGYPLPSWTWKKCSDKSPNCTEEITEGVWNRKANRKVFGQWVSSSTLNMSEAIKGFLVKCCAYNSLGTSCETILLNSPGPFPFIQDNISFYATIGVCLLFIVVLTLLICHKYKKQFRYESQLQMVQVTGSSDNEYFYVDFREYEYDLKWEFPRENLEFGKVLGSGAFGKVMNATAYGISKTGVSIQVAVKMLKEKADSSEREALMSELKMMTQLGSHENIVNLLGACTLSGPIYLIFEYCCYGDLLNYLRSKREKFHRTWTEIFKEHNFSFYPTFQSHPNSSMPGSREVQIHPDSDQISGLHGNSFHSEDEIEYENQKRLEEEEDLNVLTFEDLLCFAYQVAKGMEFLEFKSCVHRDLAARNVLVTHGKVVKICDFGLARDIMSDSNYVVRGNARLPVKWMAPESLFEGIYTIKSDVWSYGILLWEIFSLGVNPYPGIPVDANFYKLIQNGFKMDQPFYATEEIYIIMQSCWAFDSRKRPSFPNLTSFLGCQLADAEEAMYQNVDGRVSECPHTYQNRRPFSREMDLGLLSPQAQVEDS
T4 sequence (P07333 whole entry): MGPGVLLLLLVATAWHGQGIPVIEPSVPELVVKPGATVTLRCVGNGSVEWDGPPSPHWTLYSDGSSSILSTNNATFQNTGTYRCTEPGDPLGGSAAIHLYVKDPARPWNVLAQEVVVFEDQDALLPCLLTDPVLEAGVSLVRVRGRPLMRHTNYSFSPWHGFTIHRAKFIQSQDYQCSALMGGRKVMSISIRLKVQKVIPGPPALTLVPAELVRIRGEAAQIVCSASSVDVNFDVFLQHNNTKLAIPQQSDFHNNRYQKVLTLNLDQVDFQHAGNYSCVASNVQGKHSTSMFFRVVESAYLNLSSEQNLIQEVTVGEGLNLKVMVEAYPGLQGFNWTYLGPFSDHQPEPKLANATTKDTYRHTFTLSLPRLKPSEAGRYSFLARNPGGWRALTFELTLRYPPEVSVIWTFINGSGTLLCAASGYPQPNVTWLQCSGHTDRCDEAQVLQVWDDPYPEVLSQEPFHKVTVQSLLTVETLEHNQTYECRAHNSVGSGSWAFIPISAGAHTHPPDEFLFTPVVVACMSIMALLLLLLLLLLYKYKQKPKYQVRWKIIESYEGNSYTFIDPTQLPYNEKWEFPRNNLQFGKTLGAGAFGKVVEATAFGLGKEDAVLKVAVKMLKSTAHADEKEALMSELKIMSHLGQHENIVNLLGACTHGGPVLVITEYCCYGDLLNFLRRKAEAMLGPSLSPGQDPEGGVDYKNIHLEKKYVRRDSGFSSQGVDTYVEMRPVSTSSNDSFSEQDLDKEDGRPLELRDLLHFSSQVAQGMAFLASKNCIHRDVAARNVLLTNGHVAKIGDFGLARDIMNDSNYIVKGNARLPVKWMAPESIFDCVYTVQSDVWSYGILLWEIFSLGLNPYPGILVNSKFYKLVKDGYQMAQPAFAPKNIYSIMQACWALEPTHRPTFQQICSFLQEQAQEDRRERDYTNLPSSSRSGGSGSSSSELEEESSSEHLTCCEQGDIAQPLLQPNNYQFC
Chain of Mast/stem cell growth factor receptor Kit (Homo sapiens), P10721 [UNDEFINED MUTATION] (P10721 whole entry, looked up, stated change not applied, the tested form may be a part): as the sequence (P10721 whole entry) above

Structure (SMILES): Cn1cc(-c2ccc(CNc3cc(-c4cnc5cc(OCCCN6CCCC6)ccn45)ncn3)cc2)cn1 [IDRX-42]
- IC50 [1]: 48 nM
- inhibition [2]: > 80%
- hepatocyte CLint [3]: 21 µL/min/1e6 cells
- Papp at 2 h, 1 µM [4]: 5.7 ×10⁻⁶ cm/s
- efflux ratio at 2 h, 1 µM [5]: 14
- solubility [6]: 374 µg/mL (≈ 735 µM)
- logD [7]: 2.6
- pKa [8]: 9.7
- inhibition [9]: > 80%
- inhibition [10]: > 80%
- inhibition [11]: > 80%
- inhibition [12]: > 80%
- inhibition [13]: > 80%
- IC50 [14]: 50 nM
- IC50 [15]: 2.6 nM
- IC50 [16]: 5.5 nM
- IC50 [17]: 141 nM
- Activity [18]: 65%
- Activity [19]: 45%
- Activity [20]: Non-Toxic
- clearance [21]: 18.3 mL/min/kg
- Vd [22]: 11 L/kg
- bioavailability [23]: 46%
- clearance [24]: 36.7 mL/min/kg
- Vd [25]: 23.2 L/kg
- half-life [26]: 6.8 h
- bioavailability [27]: 63%
- clearance [28]: 36.7 mL/min/kg
- half-life [29]: 9.6 h
- bioavailability [30]: 80%
- clearance [31]: 36.7 mL/min/kg
- Vd [32]: 12.4 L/kg
- bioavailability [33]: 31%
- inhibition [34]: Active
- inhibition [35]: Active
- inhibition [36]: Active
- inhibition [37]: Active
- inhibition [38]: inactive
- IC50 [39]: 4 nM
- IC50 [40]: 4 nM
- Activity [41]: inactive
- inhibition [42]: Dose-Dependent Effect
